Assay results as given in patent publication US11504367B2, “Compounds and methods for treating oxalate-related diseases” (OxaluRx, Inc., priority 2019, dated 2022).

How the values were obtained:
[1] = biological target: recombinant full-length human hydroxyacid oxidase 1 (HAO1), the equivalents of hGOX (Homo sapiens (Human), UniProt Q9UJM8); experiment: In-vitro human glycolate oxidase (hGOX) assay (Amplex red fluorescence); assay type: biochemical; conditions: 6 nM recombinant human GO, 85 μM glycolate, 10 min preincubation
Chain of recombinant full-length human hydroxyacid oxidase 1 (HAO1), the equivalents of hGOX (Q9UJM8 whole entry): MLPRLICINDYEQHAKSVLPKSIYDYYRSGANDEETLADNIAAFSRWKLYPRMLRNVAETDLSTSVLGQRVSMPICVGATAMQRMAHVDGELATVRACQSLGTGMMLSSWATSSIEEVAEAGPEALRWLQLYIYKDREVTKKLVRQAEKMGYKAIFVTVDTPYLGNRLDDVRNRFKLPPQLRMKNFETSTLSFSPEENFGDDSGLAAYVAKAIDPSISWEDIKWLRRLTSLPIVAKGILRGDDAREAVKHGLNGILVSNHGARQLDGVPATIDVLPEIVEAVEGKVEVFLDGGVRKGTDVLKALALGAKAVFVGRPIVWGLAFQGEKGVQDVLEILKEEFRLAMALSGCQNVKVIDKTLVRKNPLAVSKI
Outline: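 Activity was read as Amplex Red fluorescence (560/590 nm), with 50 μM reagent added after a 10 min room-temperature incubation. The enzyme, full-length human HAO1, was in pH 7.4 HEPES buffer containing KCl, NaCl, MgCl2 and 0.01% Triton X-100.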

[2] = biological target: glycolate oxidase (GOX) in HepaRG-CAR cells (Homo sapiens (Human), UniProt Q9UJM8); experiment: HepaRG-CAR cell-based assay for quantitation of glycolate oxidase inhibition (cellular glycolate flux, GC-MS)
Chain of glycolate oxidase (GOX) in HepaRG-CAR cells (Q9UJM8 whole entry): as above

[3] = In-vivo pharmacokinetic evaluation (exposure, AUC fold-over Example 1); conditions: male CD-1 mice, 10 mg/kg oral gavage in 20% (2-Hydroxypropyl)-β-cyclodextrin, plasma at 0.5, 2 and 6 hours post-dose; AUC expressed as fold-over Example 1
Protocol: In-vivo exposure of test compounds was determined in 5-6 week old male CD-1 mice. Mice (n=2/compound) received 10 mg/kg of each compound formulated in 20% (2-Hydroxypropyl)-β-cyclodextrin (10 μL/g) by oral gavage. At 0.5 hours, 2 hours, and 6 hours post-dose, blood samples were collected from the submandibular vein using EDTA as an anticoagulant and stored on ice. Plasma samples were obtained by centrifugation at 4° C. and were analyzed immediately or stored at −20° C. until analysis. Compounds were extracted from mouse plasma with acetonitrile and quantified by LC-MS-MS in the negative ion mode using a standard curve.

[4] = test system: alanine-glyoxylate aminotransferase (AGXT) knockout mice; experiment: In vivo efficacy in Agxt−/− mouse model of primary hyperoxaluria 1 (urine oxalate and glycolate)
Protocol: The in-vivo activity of test compounds was evaluated using alanine-glyoxylate aminotransferase (AGXT) knockout mice from Jackson Laboratory (Bar Harbor, Me.), as reported by Martin-Higueras et al., Molecular Therapy, vol. 24 no. 4, 719-725, 2016. Ten to 15-week-old male AGXT knock-out mice (Agxt−/−) were used to assess the in-vivo activity of test compounds on urinary oxalate and glycolate.
Male Agxt−/− mice were housed under standard conditions (five animals per cage) and allowed free access to food and water. Upon study initiation, animals were treated with test compounds by oral gavage formulated in 20% (2-hydroxypropyl)-β-cyclodextrin (10 μL/g). […]
Urine oxalate was measured using a commercially available clinical oxalate oxidase assay (Trinity Biotech, Wicklow, Ireland) following the manufacturer's instructions.
Plasma and urine glycolate were determined by methods described in Dutta et al., “Inhibition of Glycolate Oxidase with Dicer-substrate siRNA Reduces Calcium Oxalate Deposition in a Mouse Model of Primary Hyperoxaluria Type 1.” Mol Ther., 24(4) 770-778 (2016) using liquid chromatography combined with mass spectrometry detection (LC/MS) on a triple-quadrupole instrument by electrospray ionization and multiple reaction monitoring. […] A two-step protein precipitation determined plasma glycolate. […]

[5] = Alternate liver microsome metabolic stability assay; assay type: in vitro ADME, human, monkey, dog, rat, mouse; conditions: liver microsomes, 1 μM, at 30 minutes, all species tested
Protocol: Metabolic Stability. For evaluating the metabolic stability in liver microsomal preparations, two buffers were prepared. Buffer A consisted of 10 mM NADPH and 0.5 mg/mL microsomes in 100 mM of phosphate buffer. Buffer B consisted of 0.5 mg/mL microsomes in 100 mM of phosphate buffer. The reference compound (verapamil) and test compound were prepared as 100 μM DMSO stocks. The source of liver microsomes was as follows: Human (BD Gentest, #452117), monkey (RILD, #LM-SXH-02M), dog (BD, #452601), Rat (BioIVT, #M00001), and mouse (BioIVT, #M00501).
The reaction was started by adding 2.5 μL of 100 μM control compound or test compound solutions to 216.25 μL of prewarmed (37° C.) assay buffer. The final concentration of the control compound and test compounds were 1 μM. […] The reaction was stopped by adding 5 volumes of cold acetonitrile with internal standards (100 nM alprazolam, 200 nM caffeine, and 100 nM tolbutamide). Samples were centrifuged at 3,220 g for 30 minutes. An aliquot of 100 μL of the supernatant was mixed with 100 μL of ultra-pure water and then used for LC-MS/MS analysis.

[6] = Alternate plasma stability assay; assay type: in vitro ADME, human, dog, mouse; conditions: 5 μM
Protocol: Plasma stability. Stock compounds were prepared for testing the stability in human (BioIVT, #BRH1589665), dog (BioIVT, #BGL102122) and mouse (BioIVT, #MSE37887) plasma. 1 mM test compound working solution was prepared in DMSO. A one mM propantheline working solution was prepared in acetonitrile. Propantheline was used as a positive control for human, dog, and mouse plasma in this assay.
Plasma (398 μL) for each compound was added into an incubation plate, and the plate was pre-warmed for 15 minutes at 37° C. The reaction was initiated upon addition of 2 μL of 1 mM working solution (test compounds or control compound) to the plasma to reach a final concentration of 5 μM. The reaction was incubated at 37° C. Aliquots of 50 μL were taken from the reaction samples at 0 and 60 minutes. Adding 450 μL cold acetonitrile containing internal standards stopped the reaction. Once the reaction was stopped, the samples were vortexed for 10 minutes, followed by centrifugation at 3,220 g for 40 minutes to precipitate proteins. The supernatant (100 μL) was transferred to a new plate and diluted with ultrapure water according to the LC-MS signal response and peak shape. Samples were analyzed by LC-MS/MS.

[7] = test system: Caco-2 cell monolayers; experiment: Alternate Caco-2 permeability assay; assay type: in vitro ADME; conditions: alternate Caco-2 assay, 10 μM, 2 hours
Protocol: A working solution for the Caco-2 permeability assay was prepared by diluting test compound stock solutions (2 mM in DMSO) with HBSS (10 mM, pH 7.4) to 10 μM working solution. Metoprolol, erythromycin, and cimetidine were used as the control compounds.
To determine the rate of drug transport in the apical-to-basolateral direction (A-B), 125 μL of the working solution was added to the Transwell insert (apical compartment). 50 μL of each sample was immediately transferred from the apical compartment to 200 μL of acetonitrile containing internal standards (100 nM alprazolam, 200 nM caffeine, and 100 nM tolbutamide) in a new 96-well plate as the initial donor sample (A-B). Samples were vortexed at 1000 rpm for 10 minutes, and the wells in the receiver plate (basolateral compartment) were subsequently filled with 235 μL of transport buffer. Plates were incubated at 37° C. for 2 hours.
To determine the rate of drug transport in the basolateral-to-apical direction (B-A), 285 μL of the working solution was added to the receiver plate wells (basolateral compartment). 50 μL of each sample was transferred immediately from the basolateral compartment to 200 μL of acetonitrile containing internal standards (100 nM alprazolam, 200 nM Caffeine, and 100 nM tolbutamide) in a new 96-well plate as the initial donor sample (B-A). Samples were vortexed at 1000 rpm for 10 minutes, and 75 μL of transport buffer was added to the Transwell insert (apical compartment). Plates were incubated at 37° C. for 2 hours. […]
To determine the Lucifer Yellow leakage after 2 hour transport period, the stock solution of Lucifer yellow was prepared in DMSO and diluted with HBSS (10 mM HEPES, pH 7.4) to reach the final concentration of 100 μM. […] The Lucifer Yellow fluorescence (to monitor monolayer integrity) signal was measured in a fluorescence plate reader at 480 nm excitation and 530 nm emission.

Row | SMILES | IC50 [1] | AUC Fold over Ex. 1 [3] | compound remained intact [5] | plasma stability half-life (compared with Example 1) [6] | Papp Efflux Ratio [7] | IC50 [2] | inhibition of urine oxalate ([4]; compound 1 dosed at 10 and 30 mg/kg, vs vehicle-treated control) | urine glycolate change ([4]; compound 1 dosed twice daily at 10 and 30 mg/kg)
1 | C#Cc1cccc(Oc2[nH]nnc2C(=O)O)c1 [Example 1, 5-(3-Ethynylphenoxy)-1H-1,2,3-triazole-4-carboxylic Acid] | 21 nM | 1.0 |  |  |  | 2500 nM | about 30% | concomitant increase in urine glycolate
2 | CC(C)CC#Cc1cccc(Oc2[nH]nnc2C(=O)O)c1 [Example 343, 5-(3-(4-Methylpent-1-ynyl)phenoxy)-1H-1,2,3-triazole-4-carboxylic Acid] | 10 nM | 4.3 | 100% | similarly long or longer half-lives | single digits |  |  | 

More lines, in order of falling IC50 [1], values ahead:

Row | IC50 [1] | AUC Fold over Ex. 1 [3] | compound remained intact [5] | plasma stability half-life (compared with Example 1) [6] | Papp Efflux Ratio [7] | SMILES | IC50 [2] | inhibition of urine oxalate ([4]; compound 1 dosed at 10 and 30 mg/kg, vs vehicle-treated control) | urine glycolate change ([4]; compound 1 dosed twice daily at 10 and 30 mg/kg)
3 | 13 nM | 4.1 | 100% | similarly long or longer half-lives | single digits | O=C(O)c1nn[nH]c1Oc1cccc(C#CCC2CC2)c1 [Example 302, 5-(3-(3-Cyclopropylprop-1-ynyl)phenoxy)-1H-1,2,3-triazole-4-carboxylic Acid] |  |  | 
4 | 8 nM | 0.1 | 100% | similarly long or longer half-lives |  | CS(=O)(=O)c1ccc(C#Cc2cccc(Oc3[nH]nnc3C(=O)O)c2)cc1 [Example 255, 5-(3-(2-(4-(Methylsulfonyl)phenyl)ethynyl)phenoxy)-1H-1,2,3-triazole-4-carboxylic Acid] |  |  | 
5 | 6 nM | 7.4 |  |  | single digits | O=C(O)c1nn[nH]c1Sc1cccc(C#CCC2CC2)c1 [Example 356, 5-(3-(3-Cyclopropylprop-1-ynyl)phenylthio)-1H-1,2,3-triazole-4-carboxylic Acid] |  |  | 
6 | 3 nM |  |  | similarly long or longer half-lives |  | CS(=O)(=O)c1ccc(C#Cc2ccc(Oc3[nH]nnc3C(=O)O)cc2)cc1 [Example 190, 5-(4-(2-(4-(Methylsulfonyl)phenyl)ethynyl)phenoxy)-1H-1,2,3-triazole-4-carboxylic Acid] |  |  | 
